Read-outs that look alike come from different tables or passages of the source.

The values below come from patent US20020155192A1, “Yeast transport isoforms” (priority 2000, published 2002).

Common to all, as to format: biochemical
For test [1], the target named is T1, Odc1p (Saccharomyces cerevisiae, UniProt Q03028).
T1 construct: made in house; host or cells: S. cerevisiae odc1Δodc2Δ (YPH499 background) carrying pYES2-based pODC1; purified from mitochondria on Ni-NTA agarose
T1 sequence (Q03028 1-310): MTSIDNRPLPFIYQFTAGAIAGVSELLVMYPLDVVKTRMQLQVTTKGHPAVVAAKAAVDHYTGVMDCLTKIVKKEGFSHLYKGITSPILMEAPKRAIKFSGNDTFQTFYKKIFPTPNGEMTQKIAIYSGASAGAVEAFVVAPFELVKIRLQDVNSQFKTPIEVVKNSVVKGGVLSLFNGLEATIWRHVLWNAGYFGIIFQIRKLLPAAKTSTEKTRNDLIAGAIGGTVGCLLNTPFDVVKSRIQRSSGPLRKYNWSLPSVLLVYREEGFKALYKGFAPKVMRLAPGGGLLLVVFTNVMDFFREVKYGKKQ
Kind of test: Dependence on internal substrate of [14C]oxoglutarate uptake into proteoliposomes reconstituted with recombinant Odc1p. Particulars: for [14C]oxoglutarate transport: proteoliposomes preloaded with 20 mM internal substrate, 0.6 mM [14C]oxoglutarate, 45 seconds. How it is done: (§1) Reconstitution of the ODC proteins into liposomes—Purified ODC proteins were reconstituted by cyclic removal of the detergent with a hydrophobic column (13). The composition of the initial mixture used for reconstitution was: 200 μl of purified isoform (0.3-0.4 μg of protein), 70 μl of 10% Triton X-114, 100 μl of 10% phospholipids in the form of sonicated liposomes, 20 mM oxoglutarate (except where otherwise indicated), 10 mM Pipes (pH 7.0), 0.7 mg of cardiolipin (Sigma) and water to a final volume of 700 μl. These components were mixed thoroughly, and the mixture was recycled 13 times through an Amberlite column (Supelco) (3.0 cm×0.5 cm) preequilibrated with a buffer containing 10 mM Pipes (pH 7.0) and with the substrate at the same concentration as in the starting mixture. All operations were performed at 4° C., except the passages through Amberlite, which were carried out at room temperature.
(§2) External substrate was removed from proteoliposomes on a Sephadex G-75 column preequilibrated with buffer F (50 mM NaCl and 10 mM PIPES, pH 7.0). Transport at 25° C. was started by adding [^14C]oxoglutarate (unless otherwise indicated) to the proteoliposomes, and terminated by addition of 30 mM pyridoxal 5′-phosphate and 10 mM bathophenanthroline (the “inhibitor-stop” method (13)). In controls, inhibitors were added with the labelled substrate. The external radioactivity was removed on Sephadex G-75 and the internal radioactivity was measured. […] The initial rate of transport was calculated in mmol/min per g protein from the time course of isotope equilibration (13). Various other transport activities were also assayed by the inhibitor-stop method. For efflux measurements, the internal substrate pool of the proteoliposomes was made radioactive by carrier-mediated exchange equilibration (13) with 0.1 mM [^14C]oxoglutarate added at high specific radioactivity. After 60 min, the residual external radioactivity was removed by passing the proteoliposomes again through a column of Sephadex G-75. Efflux was started by adding unlabelled external substrate or buffer F alone and terminated by adding the inhibitors indicated above.
(§3) The substrate specificity of purified Odc1p and Odc2p was investigated further by measuring the uptake of [^14C]oxoglutarate into proteoliposomes which had been preloaded with various substrates.
(§4) Proteoliposomes were preloaded internally with various substrates (concentration, 20 mM). Transport was started by adding [^14C]oxoglutarate (final concentration, 0.6 mM) and terminated after 45 seconds.

Test [2] has as its target T2, Odc2p (Saccharomyces cerevisiae, UniProt Q99297).
T2 construct: made in house; host or cells: S. cerevisiae odc1Δodc2Δ (YPH499 background) carrying pYES2-based pODC2; purified from mitochondria on Ni-NTA agarose
T2 sequence (Q99297 1-307): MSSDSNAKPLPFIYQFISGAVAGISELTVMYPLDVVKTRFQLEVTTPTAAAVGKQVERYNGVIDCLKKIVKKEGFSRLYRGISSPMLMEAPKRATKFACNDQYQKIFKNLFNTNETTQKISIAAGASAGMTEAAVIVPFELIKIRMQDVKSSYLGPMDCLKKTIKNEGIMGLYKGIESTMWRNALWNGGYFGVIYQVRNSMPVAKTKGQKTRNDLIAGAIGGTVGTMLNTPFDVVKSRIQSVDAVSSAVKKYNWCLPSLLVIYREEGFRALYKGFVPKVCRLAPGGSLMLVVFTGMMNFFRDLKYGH
In words: Dependence on internal substrate of [14C]oxoglutarate uptake into proteoliposomes reconstituted with recombinant Odc2p. Particulars: for [14C]oxoglutarate transport: proteoliposomes preloaded with 20 mM internal substrate, 0.6 mM [14C]oxoglutarate, 45 seconds. How it is done: as §1, §2, §3, §4

In test [3] the target is T1, Odc1p. In words: Effect of inhibitors and external compounds on the [14C]oxoglutarate/oxoglutarate exchange by proteoliposomes reconstituted with Odc1p. To be noted: for effect of oxomonocarboxylates on the rate of uptake of 0.4 mM oxoglutarate (in words): 8 mM, 20 times greater than the substrate, data not shown. The protocol:
FIG. 5. Effect of dicarboxylates and 2-oxodicarboxylates with different carbon chain length on the rate of [^14C]oxoglutarate uptake into proteoliposomes reconstituted with recombinant Odc1p. Proteoliposomes were preloaded with 20 mM oxoglutarate and reconstituted with recombinant Odc1p. Transport was initiated by the addition of 0.4 mM [^14C]oxoglutarate and terminated after 45 seconds. Oxalate, malonate, succinate, glutarate, adipate, pimelate, suberate (▪) and the corresponding 2-oxoacids (●) were added simultaneously with [1^4C]oxoglutarate at 4.0 mM concentration.
as §1, §2
(§5) In addition, the ability of non-radioactive potential substrates to inhibit the oxoglutarate/oxoglutarate exchange was examined.
Proteoliposomes were preloaded internally with 20 mM oxoglutarate and transport was initiated by the addition of 0.4 mM [^14C]oxoglutarate.

Test [4] addresses T2, Odc2p. Kind of test: Effect of inhibitors and external compounds on the [14C]oxoglutarate/oxoglutarate exchange by proteoliposomes reconstituted with Odc2p. To be noted: for effect of oxomonocarboxylates on the rate of uptake of 0.4 mM oxoglutarate (in words): 8 mM, 20 times greater than the substrate. The protocol: as §1, §2, §5
Proteoliposomes were preloaded internally with 20 mM oxoglutarate and transport was initiated by the addition of 0.4 mM [^14C]oxoglutarate. The incubation time was 45 seconds. Thiol reagents and α-cyanocinnamate were added 2 min before the labelled substrate; the other inhibitors and external substrates were added together with [^14C]oxoglutarate. The final concentration of the inhibitors was 4 mM, except for mercurials (10 μM), carboxyatractyloside (0.1 mM), N-ethylmaleimide and α-cyanocinnamate (2 mM).

Where [5] appears, read: Odc1p, proteoliposomes preloaded with various substrates.
The mark [6] stands for this setting: Odc2p, proteoliposomes preloaded with various substrates.
Where [7] appears, read: Odc1p, added with 0.4 mM [14C]oxoglutarate, 4.0 mM in FIG. 5, partly data not shown.

For the compound `NC(CCCC(=O)O)C(=O)O` (stereo not shown) [2-aminoadipate], the “[14C]oxoglutarate uptake with the internal substrate (in words)” value (“[14C]oxoglutarate uptake” for short) on Odc1p [1] (setting [5]) and on Odc2p [2] (setting [6]) was “no exchange” each time.

As for `NC(CCCCC(=O)O)C(=O)O` (stereo not shown) [2-aminopimelate], the “[14C]oxoglutarate uptake” value on Odc1p [1] (setting [5]) and on Odc2p [2] (setting [6]) was “no exchange” throughout.

Turning to `CC[C@H](O)C(=O)O` [2-hydroxybutyrate], the “[14C]oxoglutarate uptake” value on Odc1p [1] (setting [5]) and on Odc2p [2] (setting [6]) was “no exchange” throughout.

Take `CCC(=O)C(=O)O` [2-oxobutyrate]: the “[14C]oxoglutarate uptake” value at Odc1p [1] (setting [5]) and at Odc2p [2] (setting [6]) was “no exchange” throughout. For the same compound, the “effect of oxomonocarboxylates on the rate of uptake of 0.4 mM oxoglutarate (in words)” value on Odc1p [3] (Odc1p) is “did not influence”; at Odc2p [4] (Odc2p, data not shown), “did not influence”.

For the compound `CCCC(=O)C(=O)O` [2-oxovalerate], the “[14C]oxoglutarate uptake” value on Odc1p [1] (setting [5]) and at Odc2p [2] (setting [6]) was “no exchange” in each case. In addition, the “effect of oxomonocarboxylates on the rate of uptake of 0.4 mM oxoglutarate (in words)” value is recorded as “did not influence” at Odc1p [3] (Odc1p) and “did not influence” on Odc2p [4] (Odc2p, data not shown).

As to `Nc1ncnc2c1ncn2[C@@H]1O[C@H](COP(=O)(O)OP(=O)(O)OP(=O)(O)O)[C@@H](O)[C@H]1O` [ATP], the “[14C]oxoglutarate uptake” value at Odc1p [1] (setting [5]) and on Odc2p [2] (setting [6]) was “no exchange” in each case.

Take `O=C(O)CCCCC(=O)O` [Adipate]: the “[14C]oxoglutarate transport” value at Odc1p [1] (Odc1p) was 65.0 mmol/min per g protein; at Odc2p [2] (Odc2p) it was 16.7 mmol/min per g protein. The “[14C]oxoglutarate uptake” value at Odc1p [1] (setting [5]) and at Odc2p [2] (setting [6]) was “taken up efficiently” each time. The “effect of non-radioactive potential substrates on the rate of oxoglutarate uptake (in words)” value at Odc1p [3] and at Odc2p [4] was “significant inhibition” throughout.

In the case of `O=C(O)C[C@@H](O)C(=O)O` [D-malate], the entries for the “[14C]oxoglutarate transport” value at Odc1p [1] (Odc1p) and at Odc2p [2] (Odc2p) were 52.1 mmol/min per g protein and 10.5 mmol/min per g protein, respectively. Besides, the “[14C]oxoglutarate uptake” value on Odc1p [1] (setting [5]) and on Odc2p [2] (setting [6]) was “taken up efficiently” in each case.

On to `O=C(O)/C=C/C(=O)O` [Fumarate], for which the figures for the “[14C]oxoglutarate transport” value at Odc1p [1] (Odc1p) and at Odc2p [2] (Odc2p) were 8.9 mmol/min per g protein and 2.4 mmol/min per g protein, respectively. Moreover, the “[14C]oxoglutarate uptake” value at Odc1p [1] (setting [5]) and at Odc2p [2] (setting [6]) was “very low activity” each time. Further, the “effect of non-radioactive potential substrates on the rate of oxoglutarate uptake (in words)” value is “no effect” at Odc1p [3] (setting [7]) and “no effect” on Odc2p [4] (Odc2p, data not shown).

On to `O=C(O)/C=C\C(=O)O` [Maleate], for which the figures for the “[14C]oxoglutarate transport” value at Odc1p [1] (Odc1p) and at Odc2p [2] (Odc2p) were 7.1 mmol/min per g protein and 2.6 mmol/min per g protein, respectively. The “[14C]oxoglutarate uptake” value at Odc1p [1] (setting [5]) and at Odc2p [2] (setting [6]) was “very low activity” each time. Moreover, the “effect of non-radioactive potential substrates on the rate of oxoglutarate uptake (in words)” value on Odc1p [3] (setting [7]) is listed as “no effect”; at Odc2p [4] (Odc2p, data not shown), “no effect”.

As to `O=C(O)CC(=O)O` [Malonate], the “[14C]oxoglutarate transport” value on Odc1p [1] (Odc1p) was 4.8 mmol/min per g protein; on Odc2p [2] (Odc2p), 2.2 mmol/min per g protein. Moreover, the “[14C]oxoglutarate uptake” value at Odc1p [1] (setting [5]) and on Odc2p [2] (setting [6]) was “very low activity” each time. Also, the “effect of non-radioactive potential substrates on the rate of oxoglutarate uptake (in words)” value at Odc1p [3] (setting [7]) was “virtually no effect”; at Odc2p [4] (Odc2p, data not shown) it was “virtually no effect”.

Regarding `O=C(O)CCCCCC(=O)O` [Pimelate], the “[14C]oxoglutarate transport” value stood at 48.4 mmol/min per g protein at Odc1p [1] (Odc1p) and 10.4 mmol/min per g protein at Odc2p [2] (Odc2p). The “[14C]oxoglutarate uptake” value at Odc1p [1] (setting [5]) and on Odc2p [2] (setting [6]) was “taken up efficiently” throughout. The “effect of non-radioactive potential substrates on the rate of oxoglutarate uptake (in words)” value on Odc1p [3] and at Odc2p [4] was “significant inhibition” in each case.

As to `O=C(O)CCCCCCC(=O)O` [Suberate], the “[14C]oxoglutarate transport” value on Odc1p [1] (Odc1p) is given as 2.8 mmol/min per g protein; at Odc2p [2] (Odc2p), 0.4 mmol/min per g protein. For the same compound, the “[14C]oxoglutarate uptake” value on Odc1p [1] (setting [5]) and on Odc2p [2] (setting [6]) was “very low activity” in each case. In addition, the “effect of non-radioactive potential substrates on the rate of oxoglutarate uptake (in words)” value at Odc1p [3] and at Odc2p [4] was “virtually no effect” in each case.

Regarding `O=S(O)(O)=S` [thiosulfate], the “[14C]oxoglutarate uptake” value on Odc1p [1] and at Odc2p [2] was “no exchange” each time.

Take `N#C/C(=C\c1ccccc1)C(=O)O` [α-Cyanocinnamate]: the “Inhibition (%) of [14C]oxoglutarate/oxoglutarate exchange” value was 86% at Odc1p [3] (Odc1p, 20 mM internal oxoglutarate, 0.4 mM [14C]oxoglutarate, 45 seconds, inhibitors 4 mM, except mercurials 10 μM, carboxyatractyloside 0.1 mM, N-ethylmaleimide and α-cyanocinnamate 2 mM); 80% at Odc2p [4] (Odc2p, 20 mM internal oxoglutarate, 0.4 mM [14C]oxoglutarate, 45 seconds, inhibitors 4 mM, except mercurials 10 μM, carboxyatractyloside 0.1 mM, N-ethylmaleimide and α-cyanocinnamate 2 mM). The “inhibition of [14C]oxoglutarate/oxoglutarate exchange (in words)” value is recorded as “inhibited strongly” on Odc1p [3] (Odc1p, Table III) and “inhibited strongly” on Odc2p [4] (Odc2p, Table III).

hydroxyglutarate: the “effect of non-radioactive potential substrates on the rate of oxoglutarate uptake (in words)” value on Odc1p [3] and at Odc2p [4] was “slightly less effective than glutarate” each time.
